Data: PubChem BioAssay AID256 (DTP/NCI, 2004)
Where “and” joins values, the source holds several entries; their conditions need not be identical. Identical values can stand only once. Inconclusive results and toxic doses are left out. Rule for the calls: active = survival T/C of 150% or more; inactive = T/C below 125% in these data.

Tested on: CD2F1 mice, L1210 leukemia ip, survival T/C
Assay: NCI In Vivo Anticancer Drug Screen. Data for tumor model L1210 Leukemia (intraperitoneal) in CD2F1 (CDF1) mice
Conditions: higher = longer survival
Summary of the method: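 Activity against a transplanted murine tumor was judged by comparing the compound group with a vehicle group. The outcome in the treated animals was divided by that in the controls.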

[1] = endpoint: mean survival time, dose: 100.0 mg/kg/injection, schedule: Q01DX009 (ip), vehicle: saline with Tween-80
[2] = endpoint: mean survival time, dose: 100.0 mg/kg/injection, schedule: Q04DX003 (ip), vehicle: saline with Tween-80
[3] = endpoint: mean survival time, dose: 200.0 mg/kg/injection, schedule: Q01DX009 (ip), vehicle: saline with Tween-80
[4] = endpoint: mean survival time, dose: 200.0 mg/kg/injection, schedule: Q04DX003 (ip), vehicle: saline with Tween-80
[5] = endpoint: mean survival time, dose: 400.0 mg/kg/injection, schedule: Q01DX009 (ip), vehicle: saline with Tween-80
[6] = endpoint: mean survival time, dose: 400.0 mg/kg/injection, schedule: Q04DX003 (ip), vehicle: saline with Tween-80
[7] = endpoint: mean survival time, dose: 50.0 mg/kg/injection, schedule: Q04DX002 (ip), vehicle: saline with Tween-80
[8] = endpoint: mean survival time, dose: 100.0 mg/kg/injection, schedule: Q04DX002 (ip), vehicle: saline with Tween-80
[9] = endpoint: mean survival time, dose: 200.0 mg/kg/injection, schedule: Q04DX002 (ip), vehicle: saline with Tween-80

Measured: T/C

ClC(Cl)c1ccccc1C(Cl)(Cl)Cl
inactive: endpoint: mean survival time, dose: 100.0 mg/kg/injection, schedule: Q01DX001 (ip), vehicle: saline 104 % of control | [1] 99 % of control | [2] 94 % of control | endpoint: mean survival time, dose: 200.0 mg/kg/injection, schedule: Q01DX001 (ip), vehicle: saline 98 % of control | [3] 101 % of control | [4] 94 % of control | endpoint: mean survival time, dose: 400.0 mg/kg/injection, schedule: Q01DX001 (ip), vehicle: saline 98 % of control | [5] 94 % of control | [6] 88 % of control

Cc1cccc(N2C(=O)CSC2=S)c1
inactive: [2] 92 % of control | [4] 88 % of control | [6] 95 % of control

Nc1cccc(OCC(O)CN2CCN(c3ccccc3)CC2)c1 (centres undefined)
inactive: [7] 93 % of control | [8] 89 % of control and 94 % of control | [9] 112 % of control

OCCN1CCN(CCO)CC1.[Cl][Pt+2][Cl]
inactive: endpoint: mean survival time, dose: 25.0 mg/kg/injection, schedule: Q04DX003 (ip), vehicle: saline with Tween-80 101 % of control | [2] 97 % of control | [4] 94 % of control

CSc1nc(NC2OCC(O)C(O)C2O)cc(=O)[nH]1 (centres undefined)
inactive: endpoint: median survival time, dose: 12.5 mg/kg/injection, schedule: Q01DX005 (ip), vehicle: saline 102 % of control | endpoint: median survival time, dose: 25.0 mg/kg/injection, schedule: Q01DX005 (ip), vehicle: saline 98 % of control | endpoint: median survival time, dose: 50.0 mg/kg/injection, schedule: Q01DX005 (ip), vehicle: saline 100 % of control | endpoint: median survival time, dose: 100.0 mg/kg/injection, schedule: Q01DX005 (ip), vehicle: saline 98 % of control | endpoint: median survival time, dose: 200.0 mg/kg/injection, schedule: Q01DX005 (ip), vehicle: saline 100 % of control

NCCC(O)C(=O)NC1CC(N)C(OC2OC(CN)C(O)C(O)C2N)C(OC2OC(CO)C(O)C2O)C1O (centres undefined)
inactive: [7] 100 % of control | endpoint: mean survival time, dose: 50.0 mg/kg/injection, schedule: Q04DX002 (ip), vehicle: saline 98 % of control | [8] 100 % of control | endpoint: mean survival time, dose: 100.0 mg/kg/injection, schedule: Q04DX002 (ip), vehicle: saline 98 % of control | [9] 96 % of control | endpoint: mean survival time, dose: 200.0 mg/kg/injection, schedule: Q04DX002 (ip), vehicle: saline 95 % of control | endpoint: mean survival time, dose: 400.0 mg/kg/injection, schedule: Q04DX002 (ip), vehicle: saline with Tween-80 96 % of control | endpoint: mean survival time, dose: 400.0 mg/kg/injection, schedule: Q04DX002 (ip), vehicle: saline 98 % of control

CN1CN(C)C(=O)S(=O)(=O)C1
inactive: [1] 105 % of control | [2] 92 % of control | [3] 103 % of control | [4] 93 % of control | [5] 107 % of control | [6] 98 % of control

NC(=O)N/N=C/C(c1ccccc1)c1ccccc1
inactive: [1] 105 % of control | [3] 94 % of control | [5] 103 % of control

CN(C)S(=O)(=O)/C=C(\Cl)c1ccccc1
inactive: endpoint: mean survival time, dose: 100.0 mg/kg/injection, schedule: Q01DX001 (ip), vehicle: saline with Tween-80 97 % of control | endpoint: mean survival time, dose: 200.0 mg/kg/injection, schedule: Q01DX001 (ip), vehicle: saline with Tween-80 100 % of control | endpoint: mean survival time, dose: 400.0 mg/kg/injection, schedule: Q01DX001 (ip), vehicle: saline with Tween-80 104 % of control

CN(Cc1ccccc1)C1CCC(C(=O)O)CC1 (centres undefined)
inactive: endpoint: mean survival time, dose: 100.0 mg/kg/injection, schedule: Q01DX009 (ip), vehicle: saline 107 % of control | endpoint: mean survival time, dose: 200.0 mg/kg/injection, schedule: Q01DX009 (ip), vehicle: saline 107 % of control | endpoint: mean survival time, dose: 400.0 mg/kg/injection, schedule: Q01DX009 (ip), vehicle: saline 100 % of control

Clc1ccccc1C(Nc1cnccn1)Nc1cnccn1
inactive: endpoint: median survival time, dose: 25.0 mg/kg/injection, schedule: Q01DX009 (ip), vehicle: saline with Tween-80 97 % of control and 102 % of control | endpoint: median survival time, dose: 50.0 mg/kg/injection, schedule: Q01DX009 (ip), vehicle: saline with Tween-80 97 % of control and 110 % of control | endpoint: median survival time, dose: 100.0 mg/kg/injection, schedule: Q01DX009 (ip), vehicle: saline with Tween-80 108 % of control and 109 % of control | endpoint: median survival time, dose: 200.0 mg/kg/injection, schedule: Q01DX009 (ip), vehicle: saline with Tween-80 113 % of control and 124 % of control | endpoint: median survival time, dose: 400.0 mg/kg/injection, schedule: Q01DX009 (ip), vehicle: saline with Tween-80 92 % of control

C[N+](C)(C)CC1CS1 (centres undefined)
inactive: endpoint: mean survival time, dose: 4.5 mg/kg/injection, schedule: Q01DX009 (ip), vehicle: saline sonified 96 % of control | endpoint: mean survival time, dose: 4.5 mg/kg/injection, schedule: Q04DX003 (ip), vehicle: saline 98 % of control | endpoint: mean survival time, dose: 9.0 mg/kg/injection, schedule: Q01DX009 (ip), vehicle: saline sonified 94 % of control | endpoint: mean survival time, dose: 9.0 mg/kg/injection, schedule: Q04DX003 (ip), vehicle: saline 98 % of control | endpoint: mean survival time, dose: 18.0 mg/kg/injection, schedule: Q01DX009 (ip), vehicle: saline sonified 92 % of control | endpoint: mean survival time, dose: 18.0 mg/kg/injection, schedule: Q04DX003 (ip), vehicle: saline 95 % of control

C=CC1(C)CCN=C(CCN2CCCCC2)O1 (centres undefined)
inactive: endpoint: mean survival time, dose: 100.0 mg/kg/injection, schedule: Q01DX001 (ip), vehicle: saline sonified 97 % of control | endpoint: mean survival time, dose: 200.0 mg/kg/injection, schedule: Q01DX001 (ip), vehicle: saline sonified 100 % of control
